Results published in patent US10538554B2, “Peptides and uses therefor as antiviral agents” (priority 2015, dated 2020).
Bridge positions count the residues as written; N and C are the ends. Square brackets hold non-standard residues; d marks the D form. Peptide text beside a SMILES is read from it.

What was measured:
H9N2 A/Iran/16/2000 = details: 48 h, 500 μM
[1] = test system: H1N1 A1/Malaysia/302/1954; details: A1/Malaysia/302/1954, 48 h, 500 μM
H3N8 A/Miami/2/63 = details: A/Miami/2/63, 48 h, 500 μM

Row | Structure (SMILES) | % inhibition H9N2 (H9N2 A/Iran/16/2000) | % inhibition H1N1 [1] | % inhibition H3N8 (H3N8 A/Miami/2/63)
1 | C[C@H](O)[C@H]1NC(=O)[C@H](N)CSSC[C@H](C(=O)O)NC(=O)[C@@H](CC(N)=O)NC(=O)[C@@H](CCCCN)NC(=O)[C@@H](Cc2ccccc2)NC(=O)[C@@H](CCCNC(=N)N)NC(=O)[C@@H](CO)NC(=O)[C@@H](CCCCN)NC1=O [PSP 9, H-ctksrfknc-OH] (H-[dC][dT][dK][dS][dR][dF][dK][dN][dC]-OH; disulfide 1-9) | 31.8% | 17.6% | 62.9%
2 | C[C@H](O)[C@H]1NC(=O)[C@H](N)CSSC[C@H](C(=O)O)NC(=O)[C@@H](CC(N)=O)NC(=O)[C@@H](CC(N)=O)NC(=O)[C@@H](Cc2ccccc2)NC(=O)[C@@H](CCCNC(=N)N)NC(=O)[C@@H](CO)NC(=O)[C@@H](CCCCN)NC1=O [PSP 12, H-ctksrfnnc-OH] (H-[dC][dT][dK][dS][dR][dF][dN][dN][dC]-OH; disulfide 1-9) | 27.3% | 32.7% | 70.1%
3 | C[C@H](O)[C@H]1NC(=O)[C@H](N)CSSC[C@H](C(=O)O)NC(=O)[C@@H](CC(N)=O)NC(=O)[C@@H](CCC(N)=O)NC(=O)[C@@H](Cc2ccccc2)NC(=O)[C@@H](CCCNC(=N)N)NC(=O)[C@@H](CO)NC(=O)[C@@H](CCCCN)NC1=O [PSP 14, H-ctksrfqnc-OH] (H-[dC][dT][dK][dS][dR][dF][dQ][dN][dC]-OH; disulfide 1-9) | 18.2% | 23.1% | 62.9%
4 | C[C@H](O)[C@H]1NC(=O)[C@H](N)CSSC[C@H](C(=O)O)NC(=O)[C@@H](CC(N)=O)NC(=O)[C@@H](CO)NC(=O)[C@@H](Cc2ccccc2)NC(=O)[C@@H](CCCNC(=N)N)NC(=O)[C@@H](CO)NC(=O)[C@@H](CCCCN)NC1=O [PSP 16, H-ctksrfsnc-OH] (H-[dC][dT][dK][dS][dR][dF][dS][dN][dC]-OH; disulfide 1-9) | 45.5% | 13.5% | 71.1%
5 | C[C@H](O)[C@H]1NC(=O)[C@H](N)CSSC[C@H](C(=O)O)NC(=O)[C@@H](CC(N)=O)NC(=O)[C@@H]([C@H](C)O)NC(=O)[C@@H](Cc2ccccc2)NC(=O)[C@@H](CCCNC(=N)N)NC(=O)[C@@H](CO)NC(=O)[C@@H](CCCCN)NC1=O [PSP 17, H-ctksrftnc-OH] (H-[dC][dT][dK][dS][dR][dF][dT][dN][dC]-OH; disulfide 1-9) | 9.1% | 30.8% | 74.2%
6 | CC[C@@H](C)[C@H]1NC(=O)[C@@H](Cc2ccccc2)NC(=O)[C@@H](CCCNC(=N)N)NC(=O)[C@@H](CO)NC(=O)[C@@H](C)NC(=O)[C@@H]([C@H](C)O)NC(=O)[C@H](NC(=O)[C@@H](CCCCN)NC(=O)[C@@H](CCCCN)NC(=O)[C@@H](CCCNC(=N)N)NC(=O)[C@H](N)CCCNC(=N)N)CSSC[C@H](C(=O)O)NC(=O)[C@@H](CC(N)=O)NC1=O [PSP II A1, H-rrkkctasrfinc-OH] (H-[dR][dR][dK][dK][dC][dT][dA][dS][dR][dF][dI][dN][dC]-OH; disulfide 5-13) | 40% |  | 25.9%
7 | CC[C@@H](C)[C@H]1NC(=O)[C@@H](Cc2ccccc2)NC(=O)[C@@H](CCCNC(=N)N)NC(=O)[C@@H](CO)NC(=O)[C@@H](CC(=O)O)NC(=O)[C@@H]([C@H](C)O)NC(=O)[C@H](NC(=O)[C@@H](CCCCN)NC(=O)[C@@H](CCCCN)NC(=O)[C@@H](CCCNC(=N)N)NC(=O)[C@H](N)CCCNC(=N)N)CSSC[C@H](C(=O)O)NC(=O)[C@@H](CC(N)=O)NC1=O [PSP II A3, H-rrkkctdsrfinc-OH] (H-[dR][dR][dK][dK][dC][dT][dD][dS][dR][dF][dI][dN][dC]-OH; disulfide 5-13) | 40% | 44.8% | 85.2%
8 | CC[C@@H](C)[C@H]1NC(=O)[C@@H](Cc2ccccc2)NC(=O)[C@@H](CCCNC(=N)N)NC(=O)[C@@H](CO)NC(=O)[C@@H](CCC(=O)O)NC(=O)[C@@H]([C@H](C)O)NC(=O)[C@H](NC(=O)[C@@H](CCCCN)NC(=O)[C@@H](CCCCN)NC(=O)[C@@H](CCCNC(=N)N)NC(=O)[C@H](N)CCCNC(=N)N)CSSC[C@H](C(=O)O)NC(=O)[C@@H](CC(N)=O)NC1=O [PSP II A4, H-rrkkctesrfinc-OH] (H-[dR][dR][dK][dK][dC][dT][dE][dS][dR][dF][dI][dN][dC]-OH; disulfide 5-13) | 60% | 36.2% | 74.1%
9 | CC[C@@H](C)[C@H]1NC(=O)[C@@H](Cc2ccccc2)NC(=O)[C@@H](CCCNC(=N)N)NC(=O)[C@@H](CO)NC(=O)[C@@H](Cc2ccccc2)NC(=O)[C@@H]([C@H](C)O)NC(=O)[C@H](NC(=O)[C@@H](CCCCN)NC(=O)[C@@H](CCCCN)NC(=O)[C@@H](CCCNC(=N)N)NC(=O)[C@H](N)CCCNC(=N)N)CSSC[C@H](C(=O)O)NC(=O)[C@@H](CC(N)=O)NC1=O [PSP II A5, H-rrkkctfsrfinc-OH] (H-[dR][dR][dK][dK][dC][dT][dF][dS][dR][dF][dI][dN][dC]-OH; disulfide 5-13) | 50% | 82.8% | 100%
10 | CC[C@@H](C)[C@H]1NC(=O)[C@@H](Cc2ccccc2)NC(=O)[C@@H](CCCNC(=N)N)NC(=O)[C@@H](CO)NC(=O)CNC(=O)[C@@H]([C@H](C)O)NC(=O)[C@H](NC(=O)[C@@H](CCCCN)NC(=O)[C@@H](CCCCN)NC(=O)[C@@H](CCCNC(=N)N)NC(=O)[C@H](N)CCCNC(=N)N)CSSC[C@H](C(=O)O)NC(=O)[C@@H](CC(N)=O)NC1=O [PSP II A6, H-rrkkctGsrfinc-OH] (H-[dR][dR][dK][dK][dC][dT]G[dS][dR][dF][dI][dN][dC]-OH; disulfide 5-13) | 20% | 1.7% | 44.4%
11 | CC[C@@H](C)[C@H]1NC(=O)[C@@H](Cc2ccccc2)NC(=O)[C@@H](CCCNC(=N)N)NC(=O)[C@@H](CO)NC(=O)[C@@H](Cc2c[nH]cn2)NC(=O)[C@@H]([C@H](C)O)NC(=O)[C@H](NC(=O)[C@@H](CCCCN)NC(=O)[C@@H](CCCCN)NC(=O)[C@@H](CCCNC(=N)N)NC(=O)[C@H](N)CCCNC(=N)N)CSSC[C@H](C(=O)O)NC(=O)[C@@H](CC(N)=O)NC1=O [PSP II A7, H-rrkkcthsrfinc-OH] (H-[dR][dR][dK][dK][dC][dT][dH][dS][dR][dF][dI][dN][dC]-OH; disulfide 5-13) | 50% | 71% | 81.5%
12 | CC[C@@H](C)[C@H]1NC(=O)[C@@H](Cc2ccccc2)NC(=O)[C@@H](CCCNC(=N)N)NC(=O)[C@@H](CO)NC(=O)[C@@H]([C@H](C)CC)NC(=O)[C@@H]([C@H](C)O)NC(=O)[C@H](NC(=O)[C@@H](CCCCN)NC(=O)[C@@H](CCCCN)NC(=O)[C@@H](CCCNC(=N)N)NC(=O)[C@H](N)CCCNC(=N)N)CSSC[C@H](C(=O)O)NC(=O)[C@@H](CC(N)=O)NC1=O [PSP II A8, H-rrkkctisrfinc-OH] (H-[dR][dR][dK][dK][dC][dT][dI][dS][dR][dF][dI][dN][dC]-OH; disulfide 5-13) | 20% | 75% | 77.8%
13 | CC[C@@H](C)[C@H]1NC(=O)[C@@H](Cc2ccccc2)NC(=O)[C@@H](CCCNC(=N)N)NC(=O)[C@@H](CO)NC(=O)[C@@H](CCCCN)NC(=O)[C@@H]([C@H](C)O)NC(=O)[C@H](NC(=O)[C@@H](CCCCN)NC(=O)[C@@H](CCCCN)NC(=O)[C@@H](CCCNC(=N)N)NC(=O)[C@H](N)CCCNC(=N)N)CSSC[C@H](C(=O)O)NC(=O)[C@@H](CC(N)=O)NC1=O [PSP II A9, H-rrkkctksrfinc-OH] (H-[dR][dR][dK][dK][dC][dT][dK][dS][dR][dF][dI][dN][dC]-OH; disulfide 5-13) | 50% | 81% | 77.8%
14 | CC[C@@H](C)[C@H]1NC(=O)[C@@H](Cc2ccccc2)NC(=O)[C@@H](CCCNC(=N)N)NC(=O)[C@@H](CO)NC(=O)[C@@H](CC(C)C)NC(=O)[C@@H]([C@H](C)O)NC(=O)[C@H](NC(=O)[C@@H](CCCCN)NC(=O)[C@@H](CCCCN)NC(=O)[C@@H](CCCNC(=N)N)NC(=O)[C@H](N)CCCNC(=N)N)CSSC[C@H](C(=O)O)NC(=O)[C@@H](CC(N)=O)NC1=O [PSP II A10, H-rrkkctisrfinc-OH] (H-[dR][dR][dK][dK][dC][dT][dL][dS][dR][dF][dI][dN][dC]-OH; disulfide 5-13) | 40% | 63.5% | 88.9%
15 | CC[C@@H](C)[C@H]1NC(=O)[C@@H](Cc2ccccc2)NC(=O)[C@@H](CCCNC(=N)N)NC(=O)[C@@H](CO)NC(=O)[C@@H](CCSC)NC(=O)[C@@H]([C@H](C)O)NC(=O)[C@H](NC(=O)[C@@H](CCCCN)NC(=O)[C@@H](CCCCN)NC(=O)[C@@H](CCCNC(=N)N)NC(=O)[C@H](N)CCCNC(=N)N)CSSC[C@H](C(=O)O)NC(=O)[C@@H](CC(N)=O)NC1=O [PSP II A11, H-rrkkctmsrfinc-OH] (H-[dR][dR][dK][dK][dC][dT][dM][dS][dR][dF][dI][dN][dC]-OH; disulfide 5-13) | 40% | 65.4% | 76.5%
16 | CC[C@@H](C)[C@H]1NC(=O)[C@@H](Cc2ccccc2)NC(=O)[C@@H](CCCNC(=N)N)NC(=O)[C@@H](CO)NC(=O)[C@H]2CCCN2C(=O)[C@@H]([C@H](C)O)NC(=O)[C@H](NC(=O)[C@@H](CCCCN)NC(=O)[C@@H](CCCCN)NC(=O)[C@@H](CCCNC(=N)N)NC(=O)[C@H](N)CCCNC(=N)N)CSSC[C@H](C(=O)O)NC(=O)[C@@H](CC(N)=O)NC1=O [PSP II A13, H-rrkkctpsrfinc-OH] (H-[dR][dR][dK][dK][dC][dT][dP][dS][dR][dF][dI][dN][dC]-OH; disulfide 5-13) | 70% | 86.5% | 97%
